Experimental data: patent publication US6530985B1, “Water-based magenta ink composition and method of ink-jet recording” (Nippon Kayaku Kabushiki Kaisha, priority 1998, dated 2003)
≈ marks a conversion by molar mass, not a printed value.

Test: Solubility of the dye in water
Format: physicochemical
Text: Further, the dye component used in the Example, which has a solubility in water of 100 g/L, is excellent for ink-jet recording and can produce a high concentration of ink composition.

With `CCC(C)(C)c1ccc(Oc2cc(Nc3ccc(S(=O)(=O)O)cc3)c3c4c(c(C(=O)c5ccccc5)c(=O)[nH]c24)-c2ccccc2C3=O)c(S(=O)(=O)O)c1` the “solubility in pure water (ion exchanged water)” value (25° C., listed as the dye component used in the Example) was 100 mg/mL (≈ 131 mM) and the solubility (pure water (ion exchanged water), 25 °C, water) was roughly 100 mg/mL (≈ 131 mM).
